Results as given in US8362031B2, “Lonidamine analogues and treatment of polycystic kidney disease” (University of Kansas, priority 2004, dated 2013).
Values joined by “and” are separate entries in the source; they are usually repeats but may differ in a detail not shown here. Equal values may be shown once. “Also recorded” adds a separate entry of the source. Read-outs that look alike come from different tables or passages of the source.

Key:
[1] = system: M-1 Clone 20; human primary cyst epithelial cells (ADPKD cells); test: MTT cell proliferation assay with cAMP (FIGS. 9A-9B); assay type: cell-based; settings: 48 hours
Experimental: Various compounds were tested for their effects on cell proliferation. In the study, the cell types were M-1 Clone 20, which is an immortalized cell line that mimics PKD, and human primary cyst epithelial cells, or ADPKD cells. The compounds were tested at 1 μM to 100 μM concentrations.
M-1 clone 20 (“M1 Clone 20”) cells are a model of PKD-like cells, which were created by stably transfecting parental “normal” M-1 immortalized renal cortical collecting duct cells with the C-terminal cytosolic domain (or C-tail) of mouse polycystin-1 (the protein product of the Pkd1 gene. The overexpressed C-tail acts in a dominant-negative fashion, conferring the PKD phenotype to these cells. Their characterization is described in: Sutters, M., Yamaguchi, T., Maser, R. L., Magenheimer, B. S., St. John, P. L., Abrahamson, D. R., Grantham, J. J. and Calvet, J. P. (2001) Polycystin-1 transforms the cAMP growth-responsive phenotype of M-1 cells. Kidney Int. 60, 484-494.
FIGS. 9A-9B include graphs that show cells grown in the vehicle (i.e. DMSO at two different volumes of 1 uL and 5 uL respectively), cAMP only, and then under the treatment drugs, all of which also had cAMP in them. The comparison drug used was 10 uM of gamendazole. […] Absorbance is a measure of cell number.
The comparison drug used was 10 uM Gamendazole. The MTT cell proliferation assay was carried out to assess cell number—cell proliferation is essentially cell number. […] Thus, absorbance is a measure of cell number, or cell proliferation. The reference bar is the third bar from the left (cAMP)—the degree of inhibition should be compared to that bar.

[2] = system: Salmonella Typhimurium TA 100; test: Ames test for mutagenicity (plate assay, colony count); settings: 48 hours at 37° C.; for Ames test (+)S9 0.1 mg/pl. / Ames test (+)S9 1 mg/pl. / Ames test (+)S9 10 mg/pl.: (+)S9 mix; for Ames test (−)S9 0.1 mg/pl. / Ames test (−)S9 1 mg/pl. / Ames test (−)S9 10 mg/pl.: (−)S9 mix
Male Long Evans rats [3] = test: In vivo antispermatogenic testing in Long Evans rats; settings: for Mortality (25 mg/kg) / Response 25 mg/kg: 25 mg/kg single i.p. injection; for Response 25 mg/kg / Response 200 mg/kg: animals responding out of animals surviving, five days following injection; for Mortality (200 mg/kg) / Response 200 mg/kg: 200 mg/kg single i.p. injection
rats = test: Toxicology: organs sectioned and examined after dosing; assay type: in vivo; settings: 25 mg/kg, two animals examined, findings per animal
Male Long Evans rats [4] = settings: rat, in vivo, 5 days
fruitfly = test: Reproduction of fruitfly; assay type: in vivo, Drosophila (fruitfly); settings: provided to a fruitfly
Text: Several known Hsp90 inhibitors are listed above. With regard to HSP90, RC-MC-110 likely a novel inhibitor of the N-terminal ATP binding site or a novel site on Hsp90. It should be noted that mutants of Hsp90 in Drosophila (fruitfly) produce sterile males and females. […] Genetics. 1999 March; 151(3):1065-79.

Row | Structure (SMILES) | Inhibition of cell proliferation (MTT absorbance) ([1]; 25 uM) | Ames test (+)S9 0.1 mg/pl. [2] | Ames test (+)S9 1 mg/pl. [2] | Ames test (+)S9 10 mg/pl. [2] | Ames test (−)S9 0.1 mg/pl. [2] | Ames test (−)S9 1 mg/pl. [2] | Ames test (−)S9 10 mg/pl. [2] | Mortality (25 mg/kg) (Male Long Evans rats [3]) | Response 25 mg/kg (Male Long Evans rats [3]) | Mortality (200 mg/kg) (Male Long Evans rats [3]) | Response 200 mg/kg (Male Long Evans rats [3]) | Inhibition of cell proliferation (MTT absorbance) ([1]; 10 uM) | Toxicology: liver, lung, pancreas, spleen, heart and kidney (histology) (rats) | Mortality (25 mg/kg) (Male Long Evans rats [4]) | Mortality (200 mg/kg) (Male Long Evans rats [4]) | Reproduction of fruitfly (fruitfly)
1 | Cc1ccc2c(C(=O)O)nn(Cc3ccc(Cl)cc3Cl)c2c1 [TH-2-178, 1-(2,4-dichlorobenzyl)-6-methyl-1H-indazole-3-carboxylic acid] | more effective in inhibition of cell proliferation at 25 uM compared to 10 uM | Pass | Pass | Pass | Pass | Pass | Pass | 0/5 | 0/5 | 0/5 | 4/5 |  |  |  |  | 
2 | O=C(O)/C=C/c1nn(Cc2ccc(Cl)cc2Cl)c2cc(Cl)ccc12 [JWS-1-190, 3-[1-(2,4-dichlorobenzyl)-6-chloro-1H-indazol-3-yl]-acrylic acid] | quite effective in inhibiting cell proliferation | Pass | Pass | Pass | Pass | Pass | Pass | 0/5 |  |  | 0/0 and 2/5 | very effective | The lung did have multiple, scattered hemorrhagic patches in the alveolar clusters; also recorded: liver, lung, pancreas, spleen, heart and kidney all appeared within normal limits |  |  | 
3 | Cc1ccc2c(C(=O)NN)nn(Cc3ccc(Cl)cc3Cl)c2c1 [TH-2-179, 1-(2,4-dichlorobenzyl)-6-methyl-1H-indazole-3-carboxylic acid hydrazide] | more effective in inhibition of cell proliferation at 25 uM compared to 10 uM | Pass | Pass | Pass | Pass | Pass | Pass | 0/5 | 2/5 | 0/5 | 5/5 | more effective at 10 uM |  |  |  | 
4 | Cc1ccc2c(/C=C/C(=O)O)nn(Cc3ccc(Cl)cc3Cl)c2c1 [TH-2-192, 3-[1-(2,4-dichlorobenzyl)-6-methyl-1H-indazol-3-yl]acrylic acid] | more effective in inhibition of cell proliferation at 25 uM compared to 10 uM | Pass | Pass | Pass | Pass | Pass | Pass | 0/5 | 0/5 | 4/5 | 0/4 |  |  |  |  | 
5 | O=C(O)c1nn(Cc2ccc(Cl)cc2Cl)c2ccccc12 [Lonidamine, 1-(2,4,-dichlorobenzyl)-1H-indazole-3-carboxylic acid] |  |  |  |  |  |  |  |  | 2/5 |  | 5/5 |  | liver, lung, pancreas, spleen, heart and kidney all appeared normal | 0/5 | 0/5 | inhibited reproduction
6 | NNC(=O)c1nn(Cc2ccc(F)cc2F)c2cc(Cl)ccc12 [JWS-1-282, 1-(2,4-difluorobenzyl)-6-chloro-1H-indazole-3-carboxylic acid hydrazide] | quite effective in inhibiting cell proliferation | Pass | Pass | Fail | Pass | Pass | Pass |  |  |  |  |  |  |  |  | 
